One data set concerns Phytophthora infestans. Nature of the data set: whole plant or invertebrate. To be noted: in Solanum lycopersicum, foliar, read-out: inhibit fungal infestation. The class given is in vivo.
For data set [1], the system named is Blumeria graminis f. Sp. tritici (Erysiphe graminis f. Sp. tritici). In words: Blumeria graminis f. Sp. tritici (Erysiphe graminis f. Sp. tritici)/Wheat/Leaf Disc Preventative (Powdery Mildew on Wheat). Type of data set: in vivo. Particulars: foliar, read-out: inhibit fungal infestation.
A further data set concerns Pythium ultimum. In words: Pythium ultimum/Liquid Culture (Seedling Damping Off). The class given is cell-based. Particulars: Globisporangium ultimum, read-out: inhibit fungal infestation.
Another data set relates to Plasmopara viticola. In words: whole plant or invertebrate. The class given is in vivo. Particulars: foliar, read-out: inhibit fungal infestation.
[2] abbreviates: 200 ppm, wheat leaf segments cv. Kanzler, preventative, 6-8 days after application, untreated control infected to over 80%.
Where [3] appears, read: 200 ppm, liquid culture (PDB), 24° C., growth inhibition photometrically 2-3 days after application.

Where two headings read alike, the source gives them in different places. A value given as a limit tells only on which side of the number the result lay.

In general, melting point refers to the temperature, or range, at which the solid turns liquid.

Regarding `CCC(Oc1ccc2ncc(OC)cc2c1)C(=O)NC(C)(C#N)COC` (stereo not drawn), the melting point was 122 to 124 °C.

Compound `CCC(Oc1cc(C)c2ncc(SC)cc2c1)C(=O)NC(C)(C)C` (stereo not drawn) registered a melting point of 119 to 121 °C.

`CCC(Oc1cc(C)c2ncc(SC)cc2c1)C(=O)NC1CCC1` (stereo not drawn) gave a melting point of 136 to 138 °C.

For `CCC(Oc1cc(C)c2ncc(SC)cc2c1)C(=O)NC(C)C` (stereo not drawn), the melting point lay in the range of 132 to 134 °C.

`C#CC(C)(C)NC(=O)C(CC)Oc1cc(Cl)c2ncc(SC)cc2c1` (stereo not drawn) returned a melting point of 140 to 142 °C.

Consider `CCC(Oc1cc(Cl)c2ncc(SC)cc2c1)C(=O)NC(C)C` (stereo not drawn), for which the melting point lay within 143 to 145 °C.

For `CCC(Oc1cc(Cl)c2ncc(SC)cc2c1)C(=O)NC(C)(C)C` (stereo not drawn), the melting point is 134 to 136 °C.

With `COC(Oc1cc(C)c2ncc(SC)cc2c1)C(=O)NC(C)(C)C` (stereo not drawn), the melting point lay in the range of 146 to 148 °C.

In the case of `COC(Oc1cc(C)c2ncc(SC)cc2c1)C(=O)NC1CCC1` (stereo not drawn), the melting point fell in the range of 132 to 134 °C.

Take `C#CC(C)(C)NC(=O)C(OC)Oc1cc(C)c2ncc(SC)cc2c1` (stereo not drawn): the melting point lay within 124 to 127 °C.

Regarding `C#CC(C)(C)NC(=O)C(OC)Oc1cc(Cl)c2ncc(SC)cc2c1` (stereo not drawn), the melting point was 116 to 118 °C.

The compound `COC(Oc1cc(Cl)c2ncc(SC)cc2c1)C(=O)NC(C)(C)C` (stereo not drawn) registered a melting point of 125 to 127 °C.

`COC(Oc1cc(Cl)c2ncc(SC)cc2c1)C(=O)NC1CCC1` (stereo not drawn) returned a melting point of 128 to 130 °C.

For the compound `COC(Oc1cc(Cl)c2ncc(SC)cc2c1)C(=O)NC1(C)CCC1` (stereo not drawn), the melting point was 113 to 115 °C.

For `COCC(C)(C#N)NC(=O)C(OC)Oc1cc(Cl)c2ncc(SC)cc2c1` (stereo not drawn), the melting point lay within 90 to 93 °C.

`C#CC(C)(C)NC(=O)C(OC)Oc1ccc2ncc(SC)cc2c1` (stereo not drawn): the melting point was 123 to 125 °C.

The compound `COC(Oc1ccc2ncc(SC)cc2c1)C(=O)NC1(C)CCC1` (stereo not drawn) had a melting point of 100 to 102 °C.

`CO/N=C/C(C)(C)NC(=O)C(Oc1ccc2ncc(OC)cc2c1)SC` (stereo not drawn) [Compound 1, N-(2-Methoxyimino-1,1-dimethyl-ethyl)-2-(3-methoxy-quinolin-6-yloxy)-2-methylsulfanyl-acetamide] had a melting point of 122 to 124 °C. Further, the inhibition at 200 ppm in the data set with Phytophthora infestans is at least 80%. The inhibition at 200 ppm in data set [1] (setting [2]) was at least 80%. In addition, the inhibition at 200 ppm in the data set on Pythium ultimum (setting [3]) was at least 80%.

As for `COCC(C)(C#N)NC(=O)C(Oc1ccc2ncc(OC)cc2c1)SC` (stereo not drawn) [Compound 3, N-(1-Cyano-2-methoxy-1-methyl-ethyl)-2-(3-methoxy-quinolin-6-yloxy)-2-methylsulfanyl-acetamide], the melting point was in the range of 75 to 77 °C. The inhibition at 200 ppm in data set [1] (setting [2]) is at least 80%. The inhibition at 200 ppm in the data set on Pythium ultimum (setting [3]) is at least 80%.

The compound `CCC(Oc1ccc2ncc(OC)cc2c1)C(=O)NC(C)(C)/C=N/OC` (stereo not drawn) [Compound 6, N-(2-Methoxyimino-1,1-dimethyl-ethyl)-2-(3-methoxy-quinolin-6-yloxy)-butyramide] displayed a melting point of 87 to 89 °C. The inhibition at 200 ppm in data set [1] (setting [2]) is at least 80%. Moreover, the inhibition at 200 ppm in the data set on Pythium ultimum (setting [3]) is at least 80%.

As to `C#CC(C)(C)NC(=O)C(OC)Oc1ccc2ncc(OC)cc2c1` (stereo not drawn) [Compound 9, N-(1,1-Dimethyl-prop-2-ynyl)-2-methoxy-2-(3-methoxy-quinolin-6-yloxy)-acetamide], the melting point lay within 124 to 127 °C. In addition, the inhibition at 200 ppm in data set [1] (setting [2]) is at least 80%.

The compound `CCC(Oc1ccc2ncc(OC)cc2c1)C(=O)NC(C)(C)C` (stereo not drawn) [Compound 12, N-tert-Butyl-2-(3-methoxy-quinolin-6-yloxy)-butyramide] gave a melting point of 131 to 133 °C. Further, the inhibition at 200 ppm with Phytophthora infestans is at least 80%. The inhibition at 200 ppm in the data set on Pythium ultimum (setting [3]) was at least 80%.

The compound `CCOc1cnc2c(C)cc(OC(SC)C(=O)NC(C)(C)C)cc2c1` (stereo not drawn) [Compound 20, N-tert-Butyl-2-(3-ethoxy-8-methyl-quinolin-6-yloxy)-2-methylsulfanyl-acetamide] registered a melting point of 181 to 183 °C. The inhibition at 200 ppm with Pythium ultimum (setting [3]) is at least 80%.

Regarding `CC#CC(C)(C)NC(=O)C(Oc1cc(C)c2ncc(OCC)cc2c1)SC` (stereo not drawn) [Compound 24, N-(1,1-Dimethyl-but-2-ynyl)-2-(3-ethoxy-8-methyl-quinolin-6-yloxy)-2-methylsulfanyl-acetamide], the melting point lay within 137 to 139 °C. In addition, in the data set on Plasmopara viticola, the inhibition at 200 ppm is at least 80%. Moreover, the inhibition at 200 ppm in data set [1] was at least 80%. Also, the inhibition at 200 ppm in the data set with Pythium ultimum was at least 80%.

`CCC(Oc1ccc2ncc(SC)cc2c1)C(=O)NC(C)C` (stereo not drawn) [Compound 28, N-Isopropyl-2-(3-methylsulfanyl-quinolin-6-yloxy)-butyramide] returned a melting point of 112 to 115 °C. Besides, the inhibition at 200 ppm with Pythium ultimum (setting [3]) is at least 80%.

On to `CO/N=C/C(C)(C)NC(=O)C(Oc1cc(Cl)c2ncc(SC)cc2c1)SC` (stereo not drawn) [Compound 31, 2-(8-Chloro-3-methylsulfanyl-quinolin-6-yloxy)-N-(2-methoxyimino-1,1-dimethyl-ethyl)-2-methylsulfanyl-acetamide], for which the melting point fell in the range of 168 to 170 °C. Besides, in the data set with Plasmopara viticola, the inhibition at 200 ppm is at least 80%. Further, the inhibition at 200 ppm in the data set on Pythium ultimum (setting [3]) is at least 80%.

In turn, `CCC(Oc1cc(Cl)c2ncc(SC)cc2c1)C(=O)NC(C)(C)/C=N/OC` (stereo not drawn) [Compound 39, 2-(8-Chloro-3-methylsulfanyl-quinolin-6-yloxy)-N-(2-methoxyimino-1,1-dimethyl-ethyl)-butyramide] had a melting point of 119 to 121 °C. The inhibition at 200 ppm with Plasmopara viticola is at least 80%.

`CO/N=C/C(C)(C)NC(=O)C(OC)Oc1cc(C)c2ncc(SC)cc2c1` (stereo not drawn) [Compound 43, 2-Methoxy-N-(2-methoxyimino-1,1-dimethyl-ethyl)-2-(8-methyl-3-methylsulfanyl-quinolin-6-yloxy)-acetamide]: the melting point lay within 109 to 111 °C. Also, the inhibition at 200 ppm in the data set with Plasmopara viticola is at least 80%.

Consider `CC#CC(C)(C)NC(=O)C(OC)Oc1cc(C)c2ncc(SC)cc2c1` (stereo not drawn) [Compound 46, N-(1,1-Dimethyl-but-2-ynyl)-2-methoxy-2-(8-methyl-3-methylsulfanyl-quinolin-6-yloxy)-acetamide], for which the melting point lay in the range of 102 to 104 °C. In the data set on Plasmopara viticola, the inhibition at 200 ppm is at least 80%.

Compound `CO/N=C/C(C)(C)NC(=O)C(OC)Oc1cc(Cl)c2ncc(SC)cc2c1` (stereo not drawn) [Compound 47, 2-(8-Chloro-3-methylsulfanyl-quinolin-6-yloxy)-2-methoxy-N-(2-methoxyimino-1,1-dimethyl-ethyl)-acetamide] returned a melting point of 121 to 123 °C. In addition, the inhibition at 200 ppm in the data set with Plasmopara viticola is at least 80%. Moreover, the inhibition at 200 ppm in data set [1] (setting [2]) is at least 80%.

Compound `CC#CC(C)(C)NC(=O)C(OC)Oc1cc(Cl)c2ncc(SC)cc2c1` (stereo not drawn) [Compound 48, 2-(8-Chloro-3-methylsulfanyl-quinolin-6-yloxy)-N-(1,1-dimethyl-but-2-ynyl)-2-methoxy-acetamide] yielded a melting point of 90 to 92 °C. For the same compound, the inhibition at 200 ppm in the data set on Plasmopara viticola is at least 80%.

On to `COCC#CC(C)(C)NC(=O)C(OC)Oc1cc(Cl)c2ncc(SC)cc2c1` (stereo not drawn) [Compound 49, 2-(8-Chloro-3-methylsulfanyl-quinolin-6-yloxy)-2-methoxy-N-(4-methoxy-1,1-dimethyl-but-2-ynyl)-acetamide], for which the melting point lay within 85 to 87 °C. Further, the inhibition at 200 ppm in the data set on Plasmopara viticola was at least 80%.

Regarding `COC(Oc1cc(Cl)c2ncc(SC)cc2c1)C(=O)NC(C)C` (stereo not drawn) [Compound 52], the melting point lay in the range of 115 to 118 °C. Besides, in data set [1] (setting [2]), the inhibition at 200 ppm was at least 80%.

`CO/N=C/C(C)(C)NC(=O)C(OC)Oc1ccc2ncc(SC)cc2c1` (stereo not drawn) [Compound 56, 2-Methoxy-N-(2-methoxyimino-1,1-dimethyl-ethyl)-2-(3-methylsulfanyl-quinolin-6-yloxy)-acetamide]: the melting point was in the range of 98 to 100 °C. In addition, the inhibition at 200 ppm in the data set on Phytophthora infestans is at least 80%. Besides, in the data set with Pythium ultimum (setting [3]), the inhibition at 200 ppm is at least 80%.

Compound `CC#CC(C)(C)NC(=O)C(OC)Oc1ccc2ncc(SC)cc2c1` (stereo not drawn) [Compound 57, N-(1,1-Dimethyl-but-2-ynyl)-2-methoxy-2-(3-methylsulfanyl-quinolin-6-yloxy)-acetamide] returned a melting point of 63 to 65 °C. Besides, the inhibition at 200 ppm in data set [1] was at least 80%.

`COCC#CC(C)(C)NC(=O)C(OC)Oc1ccc2ncc(SC)cc2c1` (stereo not drawn) [Compound 58, 2-Methoxy-N-(4-methoxy-1,1-dimethyl-but-2-ynyl)-2-(3-methylsulfanyl-quinolin-6-yloxy)-acetamide] returned a melting point of 74 to 76 °C. Also, in data set [1], the inhibition at 200 ppm is at least 80%.

`COC(Oc1ccc2ncc(SC)cc2c1)C(=O)NC(C)(C)C` (stereo not drawn) [Compound 60, N-tert-Butyl-2-methoxy-2-(3-methylsulfanyl-quinolin-6-yloxy)-acetamide]: the melting point was in the range of 119 to 121 °C. Also, the inhibition at 200 ppm in data set [1] (setting [2]) was at least 80%.

With `COC(Oc1ccc2ncc(SC)cc2c1)C(=O)NC1CCC1` (stereo not drawn) [Compound 61, N-Cyclobutyl-2-methoxy-2-(3-methylsulfanyl-quinolin-6-yloxy)-acetamide], the melting point lay in the range of 80 to 82 °C. Moreover, the inhibition at 200 ppm in data set [1] (setting [2]) is at least 80%.

For the compound `CCOCC(C)(C)NC(=O)C(Oc1ccc2ncc(SC)cc2c1)SC` (stereo not drawn) [Compound 66, N-(2-Ethoxy-1,1-dimethyl-ethyl)-2-methylsulfanyl-2-(3-methylsulfanyl-quinolin-6-yloxy)-acetamide], the inhibition at 200 ppm in data set [1] (setting [2]) was at least 80%.

With `CSc1cnc2ccc(OC(SC)C(=O)NC(C)(C)CCF)cc2c1` (stereo not drawn) [Compound 67, N-(3-Fluoro-1,1-dimethyl-propyl)-2-methylsulfanyl-2-(3-methylsulfanyl-quinolin-6-yloxy)-acetamide], the inhibition at 200 ppm (in the data set on Plasmopara viticola; in data set [1] (setting [2])) was at least 80% throughout.

For the origin of these results see US20130065922A1, “NOVEL AMIDES AS FUNGICIDES” (priority 2010, published 2013).
